The target in one series is Gdx-Eco (Escherichia coli, UniProt P69937). Put plainly: SSM electrophysiology of Gdx-Eco proteoliposomes. The class given is biochemical. The conditions noted are these: 2 mM substrate. The procedure:
(§1) Gdx-Clo ([Kermani et al., 2018]), Gdx-Eco ([Kermani et al., 2018]), EmrE ([Kermani et al., 2022]), and Gdx-pAmi ([Martinez-Vaz et al., 2022]) construct design and purification have been described previously. […] Proteins were overexpressed in C41(DE3). Expression was induced by the addition of 0.2 mM IPTG for 3 h. Cells were lysed and extracted with 2% n-decyl-β-D-maltoside (DM) for 2 h. After pelleting insoluble cell debris, proteins were purified using cobalt affinity resin. Wash buffer contained 25 mM Tris, pH 8.5, 150 mM NaCl, and 5 mM DM. For Gdx-pAmi, NaCl concentration was increased to 500 mM NaCl. The affinity column was washed with wash buffer, then wash buffer with 10 mM imidazole, prior to elution with wash buffer with 400 mM imidazole. For Gdx-Clo and Gdx-Eco, histidine tags were cleaved with LysC (200 ng/mg of protein; 2 h at room temperature; New England Biolabs), and for all others, histidine tags were cleaved with thrombin (1 U/mg of protein, overnight at room temperature; MilliporeSigma). Proteins were further purified using a gel filtration Superdex200 column (Cytiva) equilibrated with 100 mM NaCl, 10 mM N-2-hydroxyethylpiperazine-N′-2-ethanesulfonic acid (HEPES), pH 7.5, and 5 mM DM. Purified proteins were stored at 4°C for up to 5 days before detergent binding assays. To prepare proteoliposomes for electrophysiology assays, purified protein was mixed with E. coli polar lipid extract (10 mg/ml; Avanti Polar Lipids) solubilized with 35 mM 3-[(3-cholamidopropyl)dimethylammonio]-1-propanesulfonate (CHAPS) at a protein to lipid ratio of 40 μg SMR transporter: mg lipid (1:370 protein:lipid molar ratio) prior to detergent removal by dialysis. For preparations that included Fluc-Bpe, liposomes were reconstituted with a molar ratio of 0.3 Fluc-Bpe:1 SMRGdx: 5920 lipid (1 μg Fluc-Bpe and ∼2.5 μg SMRGdx per mg lipid). For liposome transport assays, proteoliposomes were prepared similarly, except that a 2:1 mixture of 1-palmitoyl, 2-oleoylphosphatidylethanolamine (POPE) and 1-palmitoyl, 2-oleoylphosphatidylglycerol (POPG) (10 mg/ml; Avanti Polar Lipids) was used with 0.2 μg protein/mg lipid. Proteoliposomes were stored at −80°C until use.
(§2) SSM experiments were performed using SURFE^2R N1 instrument (Nanion Technologies). Sensors were prepared with a 1,2-diphytanoyl-sn-glycero-3-phosphocholine (DPhPC) lipid monolayer according to published protocols ([Bazzone et al., 2017]). Each sensor’s capacitance and conductance were verified before use (<80 nF capacitance, <50 nS conductance) using Nanion software protocols. Proteoliposome stock was diluted 1:25 in assay buffer (100 mM KCl, 100 mM KPO4, pH 7.5) prior to adsorption to the DPhPC monolayer. For substrate screening experiments, reference substrate samples (Gdm^+ for SMRGdx, and TPA^+ for SMRQac) were checked periodically to test for the stability of the sensor; if the current amplitude of the reference compound differed by >10% on one sensor, it indicated the desorption of liposomes, and the sensor was not used for further experiments. For every SSM electrophysiology experiment, we used the same general solution exchange protocol: after 2 s perfusion with a non-activating solution, we perfused substrate-containing buffer for 2 s and then returned to the equilibrium condition with a 4 s perfusion of non-activating buffer. For experiments with the S104C/A70C crosslinked variant, reducing conditions were established by the addition of 2.5 mM tris(2-carboxyethyl)phosphine (TCEP) to the activating and non-activating buffers.
(§3) We screened a series of metformin metabolites for transport using SSM electrophysiology (Fig. 2, A and B).

The test system of a further series is Gdx-pAmi. Kind of series: SSM electrophysiology of Gdx-pAmi proteoliposomes. The class given is biochemical, Aminobacter sp. MET. The conditions noted are these: 2 mM substrate. The procedure:
as §1, §2, §3

The target of the next series is Gdx-pPro (Citrobacter freundii, UniProt O69279). The conditions noted are these: 2 mM substrate.
Chain of Gdx-pPro (O69279 2-105): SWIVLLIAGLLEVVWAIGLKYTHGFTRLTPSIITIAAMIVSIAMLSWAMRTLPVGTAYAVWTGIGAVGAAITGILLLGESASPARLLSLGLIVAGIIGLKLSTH
The next series deals with N=C(N)N. Put plainly: purified protein, by the assay type. Conditions: other: Gdx-pPro, pH 7.5, mean ± SEM.
In the next series the target is T1, Gdx-Clo (Clostridiales bacterium oral taxon 876, UniProt U2EQ00).
T1 sequence (U2EQ00 1-105): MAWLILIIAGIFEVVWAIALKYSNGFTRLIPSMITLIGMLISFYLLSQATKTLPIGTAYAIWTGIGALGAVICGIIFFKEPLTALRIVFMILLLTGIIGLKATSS
Put plainly: SSM electrophysiology of Gdx-Clo proteoliposomes. The class given is biochemical, Clostridales oral taxon 876. Conditions: 2 mM substrate. The method, then:
as §1, §2, §3

The results in this text go back to PMC10829512, “Transport of metformin metabolites by guanidinium exporters of the small multidrug resistance family” (The Journal of General Physiology, 2024).

Chain of Gdx-Eco (P69937 whole entry): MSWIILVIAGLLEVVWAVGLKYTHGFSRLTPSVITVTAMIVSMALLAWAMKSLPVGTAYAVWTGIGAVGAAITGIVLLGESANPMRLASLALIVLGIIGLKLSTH

`CNC(=N)NC(=N)N` [methylbiguanide]: the “Transport currents in substrate screen” value on Gdx-Eco, in the series with Gdx-pAmi and on Gdx-pPro was “transported” in each case.

For the compound `CCCCNC(=N)NC(=N)N` [buformin], the “Transport currents in substrate screen” value at Gdx-Eco, in the series with Gdx-pAmi and at Gdx-pPro was “transported” throughout.

Usually Km stands for the substrate concentration at which the rate is half of its maximum. As for Gdx-pPro (Citrobacter freundii), the Km with N=C(N)N was 2900 ± 500 µM.

`CN(C)C(=N)N=C(N)N` [Metformin, metformin]: the “Transport currents in substrate screen” value at Gdx-Clo, at Gdx-Eco, in the series on Gdx-pAmi and on Gdx-pPro was “currents barely above the detectable limit” throughout.
